# Source: ChEMBL document CHEMBL4706475, “Multiparameter Lead Optimization to Give an Oral Checkpoint Kinase 1 (CHK1) Inhibitor Clinical Candidate: (R)-5-((4-((Morpholin-2-ylmethyl)amino)-5-(trifluoromethyl)pyridin-2-yl)amino)pyrazine-2-carbonitrile (CCT245737)” (J Med Chem, 2016)
# How the values were obtained:
# in vivo [1] = details: mouse, iv, 10 mg/kg
# in vivo [2] = details: mouse, po, 10 mg/kg
# in vivo [3] = details: mouse, iv, 10 mg/kg; remark: listed apart in the source
# in vivo [4] = details: mouse, iv, 10 mg/kg; remark: listed apart in the source
# in vivo [5] = details: mouse, po, 5 mg/kg
# in vivo [6] = details: mouse, iv, 5 mg/kg
# in vivo [7] = details: mouse, iv, 5 mg/kg; remark: listed apart in the source
# in vivo [8] = details: mouse, iv, 5 mg/kg; remark: listed apart in the source
# in vitro [9] = details: mouse, liver microsomes
# in vivo [10] = details: NCr athymic, mouse, plasma, po, 300 mg/kg
# [11] = Free drug level in NCr athymic mouse plasma xenografted with human HT-29 cells at 12.5 to 100 mg/kg, po administered as single dose measured at 24 hrs; type: ADME, organism-based; details: in vivo, dose 12.5-100 mg/kg
# [12] = Basicity constant, pKa of the compound by UV metric assay; type: physicochemical
# in vivo [13] = details: rat
# in vivo [14] = details: rat, po
# [15] = Passive permeability in human Caco2 cells; type: ADME, cell-based; details: caco-2
# in vitro [16] = details: CD-1, mouse, hepatocytes
# [17] = Solubility of compound in phosphate buffer at pH 6.5; type: physicochemical
# [18] = mouse, in vivo, po, 10 mg/kg
# [19] = Intrinsic clearance in dog hepatocytes at 3 uM assessed per million cells; type: ADME, cell-based, Canis lupus familiaris, Hepatocyte; details: read-out: CLH
# [20] = Solubility of compound in pure water; type: physicochemical
# [21] = Intrinsic clearance in rat hepatocytes at 3 uM assessed per million cells; type: ADME, cell-based, Hepatocyte; details: read-out: CLH
# [22] = Metabolic stability in human liver microsomes in presence of glutathione; type: ADME, Microsome
# in vitro [23] = details: human, hepatocytes
# in vivo [24] = details: rat; remark: listed apart in the source
# [25] = Lipophilicity, logD of the compound at pH 7.4 by LC-MS/MS analysis; type: physicochemical; details: buffer
# [26] = Metabolic stability in human liver microsomes in absence of glutathione; type: ADME, Microsome
smiles,measurement,setting,value
N#Cc1cnc(Nc2cc(NC[C@H]3CNCCO3)c(-c3cccc(F)c3)cn2)cn1,clearance,in vivo [1],113 mL/min/kg
same,bioavailability,in vivo [2],53%
same,half-life,in vivo [3],4.3 h
same,Vd,in vivo [4],26.8 L/kg
N#Cc1cnc(Nc2cc(NC[C@@H]3CNCCO3)c(C3CC3)cn2)cn1,clearance,in vivo [1],112 mL/min/kg
same,bioavailability,in vivo [2],68%
same,half-life,in vivo [3],8.1 h
same,Vd,in vivo [4],43.9 L/kg
CC(C)(O)C#Cc1cnc(Nc2cnc(C#N)cn2)cc1NC[C@@H]1CNCCO1,clearance,in vivo [1],138 mL/min/kg
same,bioavailability,in vivo [2],10%
same,half-life,in vivo [3],3.8 h
same,Vd,in vivo [4],10.4 L/kg
COC(=O)c1cnc(Nc2cnc(C#N)cn2)cc1NCCC1CCNCC1,bioavailability,in vivo [5],44%
same,Vd,in vivo [6],60.5 L/kg
same,clearance,in vivo [7],141 mL/min/kg
same,half-life,in vivo [8],11 h
same,metabolised at 0.5 h,in vitro [9],26%
N#Cc1cnc(Nc2cc(NC[C@H]3CNCCO3)c(C(F)(F)F)cn2)cn1 [SRA-737],concentration at 24 h,in vivo [10],4 µM
same,clearance,in vivo [1],44.2 mL/min/kg
same,Cp(f),[11],0.015 µM
same,pKa,[12],7.87
same,Vd,in vivo [13],4.6 L/kg
same,bioavailability,in vivo [14],38%
same,permeability,[15],25 10^-6 cm/s
same,hepatocyte CLint at 3 µM,in vitro [16],25.7 µL/min/1e6 cells
same,solubility,[17],1500 µg/mL
same,F,[18],105%
same,hepatocyte CLint at 3 µM,[19],55 µL/min/1e6 cells
same,solubility,[20],90 µg/mL
same,half-life,in vivo [3],2.9 h
same,hepatocyte CLint at 3 µM,[21],43.4 µL/min/1e6 cells
same,Stabilty,[22],Stable
same,hepatocyte CLint at 3 µM,in vitro [23],2.72 µL/min/1e6 cells
same,clearance,in vivo [24],58.3 mL/min/kg
same,Vd,in vivo [4],9.25 L/kg
same,logD,[25],1.47
same,Stabilty,[26],Stable
